Experiment [1] addresses T1, Cycloeucalenol cycloisomerase (Zea mays) (UniProt B6TK44).
T1 sequence (whole entry): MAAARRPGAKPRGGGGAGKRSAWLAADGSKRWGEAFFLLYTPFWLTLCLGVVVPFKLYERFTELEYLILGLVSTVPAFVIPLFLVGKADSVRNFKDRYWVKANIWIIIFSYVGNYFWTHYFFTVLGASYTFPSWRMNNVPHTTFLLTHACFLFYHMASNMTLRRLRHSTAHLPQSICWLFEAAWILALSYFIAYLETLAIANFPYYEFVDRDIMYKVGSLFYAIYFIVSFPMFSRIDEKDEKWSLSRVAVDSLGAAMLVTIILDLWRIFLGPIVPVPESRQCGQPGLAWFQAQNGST
As to the kind of experiment: Inhibition of Zea mays (maize) cycloeucalenol-obtusifolial isomerase at 200 uM.

In experiment [2] the target is T2, Delta(14)-sterol reductase (Zea mays) (UniProt B4FS76).
T2 sequence (whole entry): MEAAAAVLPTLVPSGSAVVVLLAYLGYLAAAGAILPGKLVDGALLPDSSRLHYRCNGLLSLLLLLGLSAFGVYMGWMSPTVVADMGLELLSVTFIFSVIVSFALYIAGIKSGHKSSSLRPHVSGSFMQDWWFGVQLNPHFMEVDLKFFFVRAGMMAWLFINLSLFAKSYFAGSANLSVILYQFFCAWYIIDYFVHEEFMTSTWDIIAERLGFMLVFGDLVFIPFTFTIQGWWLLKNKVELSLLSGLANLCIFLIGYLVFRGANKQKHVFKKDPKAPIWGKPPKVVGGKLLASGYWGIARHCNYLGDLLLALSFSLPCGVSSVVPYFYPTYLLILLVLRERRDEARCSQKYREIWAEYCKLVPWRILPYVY
The experiment is described as follows: Inhibition of Zea mays (maize) microsomal delta 8,14-steroid 14-reductase using delta 8,14-cholestadienol as substrate at 200 uM after 90 min by GC analysis.

Experiment [3] addresses T3, Sterol-8,7-isomerase (Zea mays) (UniProt Q2TU57).
T3 sequence (whole entry): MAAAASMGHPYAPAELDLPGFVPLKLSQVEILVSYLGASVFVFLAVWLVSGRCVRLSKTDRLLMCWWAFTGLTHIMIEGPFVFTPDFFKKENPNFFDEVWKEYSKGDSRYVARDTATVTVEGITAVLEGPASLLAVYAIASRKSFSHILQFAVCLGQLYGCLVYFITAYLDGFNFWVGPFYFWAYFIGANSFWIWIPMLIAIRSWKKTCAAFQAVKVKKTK
The experiment is described as follows: Inhibition of Zea mays (maize) delta8,delta7-sterol isomerase at 200 uM.

The target of experiment [4] is T4, Delta(14)-sterol reductase (Zea mays, UniProt B4FS76).
T4 sequence (B4FS76 whole entry): T2 sequence (whole entry)
The experiment is described as follows: Inhibition of Zea mays (maize) microsomal delta 8,14-steroid 14-reductase using delta 8,14-cholestadienol as substrate after 90 min by GC analysis.

For experiment [5], the target named is T5, Sterol-8,7-isomerase (Zea mays, UniProt Q2TU57).
T5 sequence (Q2TU57 whole entry): T3 sequence (whole entry)
As to the kind of experiment: Inhibition of Zea mays (maize) delta8,delta7-sterol isomerase.

For experiment [6], the target named is T6, Cycloeucalenol cycloisomerase (Zea mays, UniProt B6TK44).
T6 sequence (B6TK44 whole entry): T1 sequence (whole entry)
The experiment is described as follows: Inhibition of Zea mays (maize) cycloeucalenol-obtusifolial isomerase.

Experiment [7] addresses T2, Delta(14)-sterol reductase (Zea mays). As to the kind of experiment: Ratio of compound I50 to delta8,14-cholestadien-3beta-ol Km for Zea mays (maize) delta 8,14-steroid 14-reductase.

Turning to `C[C@@H]1[C@@H](O)CC[C@]2(C)CCCC[C@@H]12`, the inhibition in experiment [1], in experiment [2] and in experiment [3] was < 5% in each case.
Consider `Clc1ccccc1CNC[C@H]1CC[C@H](CNCc2ccccc2Cl)CC1`, for which the results for the 50% inhibitory concentration (IC50) in experiment [4] and in experiment [5] were 40000 nM and 500 nM, respectively. The inhibition in experiment [1] was < 5%.
Turning to `CCCCCCCCCCCCN1CC[C@H]2[C@H](C)[C@@H](O)CC[C@]2(C)C1`, the IC50 in experiment [4] came to 90 nM; in experiment [6] it was 100 nM.
On to `CC(Cc1ccc(C(C)(C)C)cc1)CN1CCCCC1` (stereo not drawn) [FENPROPIDIN], for which the 50% inhibitory concentration (IC50) in experiment [4] turned out to be 3000 nM; in experiment [6], 200 nM; in experiment [5], 80 nM.
In the same order, the values of `CC(Cc1ccc(C(C)(C)C)cc1)CN1C[C@@H](C)O[C@@H](C)C1` (stereo partly drawn) [FENPROPIMORPH] are 800 nM, 400 nM and 400 nM.
For `C[C@@H]1[C@@H](O)CC[C@]2(C)CNCC[C@@H]12`, the figures for the IC50 in experiment [4], in experiment [6] and in experiment [5] were 4500 nM, 17500 nM and 10000 nM, respectively.
For `CC(C)CCCC(C)CCCC(C)N1CC[C@H]2[C@H](C)[C@@H](O)CC[C@]2(C)C1` (stereo partly drawn), in that order: 300 nM, 25 nM and 200 nM.
As for `CC(Cc1ccc(C(C)(C)C)cc1)CN1CC[C@H]2[C@H](C)[C@@H](O)CC[C@]2(C)C1` (stereo partly drawn), the IC50 in experiment [4] was 70 nM; in experiment [6], 100 nM. In experiment [7], the Ratio was determined as 6.5e-05.
Consider `CCCCCCCCCCCCCN1CC(C)OC(C)C1` (stereo not drawn) [TRIDEMORPH], for which the half-inhibitory concentration (IC50) in experiment [4] came to 25000 nM; in experiment [6], 400 nM; in experiment [5] it was 400 nM.
For the molecule `C=C(CC[C@@H](C)[C@H]1CCN=C2C3=C(CC[C@@]21C)[C@@]1(C)CC[C@H](O)C[C@@H]1CC3)C(C)C`, the half-maximal inhibitory concentration (IC50) was determined as 30 nM in experiment [4] and 800 nM in experiment [5]. In addition, the Ratio in experiment [7] turned out to be 0.00015. Besides, the inhibition in experiment [1] is < 5%.
On to `C[C@@H]1[C@@H](O)CC[C@]2(C)CN(Cc3ccccc3)CC[C@@H]12`, for which the IC50 was 80 nM in experiment [4], 100 nM in experiment [6] and 130 nM in experiment [5].

The values are drawn from ChEMBL document CHEMBL3044637, “Microsomal delta 8,14-sterol delta 14-reductase in higher plants. Characterization and inhibition by analogues of a presumptive carbocationic intermediate of the reduction reaction” (Eur J Biochem, 1989).
